For test [1], the system named is MCF7. In words: Antiproliferative activity against human MCF7 cells after 72 hrs by MTS assay. Type of test: functional, cell-based. The following applies: MCF7, 72 h. Background: Tetrazolium assays rely on reduction of a dye to a coloured formazan, in cell work by metabolically active cells.
Test [2] deals with SK-BR-3. The experiment in a line: Antiproliferative activity against human SKBR3 cells after 72 hrs by MTS assay. Type of test: functional, cell-based. Particulars: SK-BR-3, 72 h.
For test [3], the system named is SK-BR-3. In words: Ratio of IC50 for compound to IC50 for novobiocin for human SKBR3 cells. In kind it is functional.
Test [4] addresses Heat shock protein HSP 90-beta (Homo sapiens) (UniProt P08238). The experiment in a line: Inhibition of HSP90 in human MCF7 cells assessed as Akt degradation at 0.5 to 7.5 uM after 24 hrs by Western blot analysis. Type of test: cell-based. Background: Immunoblotting shows a protein as a band on a membrane.
The target is the same in test [5]. The experiment in a line: Inhibition of HSP90 in human MCF7 cells assessed as Akt degradation after 24 hrs by Western blot analysis. In kind it is cell-based.
Test [6] shares this target. In words: Inhibition of HSP90 in human MCF7 cells assessed as Her2 degradation at after 24 hrs by Western blot analysis. Type of test: cell-based.
Test [7] shares this target. In words: Inhibition of HSP90 in human MCF7 cells assessed as Her2 degradation at 0.5 to 7.5 uM after 24 hrs by Western blot analysis. Type of test: cell-based.
Test [8] has the same target. The experiment in a line: Inhibition of HSP90 in human MCF7 cells assessed as Raf degradation at 0.5 to 7.5 uM after 24 hrs by Western blot analysis. In kind it is cell-based.
Test [9] has the same target. In words: Inhibition of HSP90 in human MCF7 cells assessed as Raf degradation after 24 hrs by Western blot analysis. Type of test: cell-based.
In test [10] the test system is MCF7. The experiment in a line: Ratio of IC50 for compound to IC50 for novobiocin for human MCF7 cells. In kind it is functional.
Test [11] concerns the target Heat shock protein HSP 90-beta (Homo sapiens) (UniProt P08238). In words: Inhibition of HSP90 in human MCF7 cells assessed as Akt degradation at 0.5 to 100 uM after 24 hrs by Western blot analysis. Type of test: cell-based.
Test [12] relates to SK-BR-3. In words: Ratio of IC50 for compound to IC50 for DHN2 for human SKBR3 cells. In kind it is functional.
Test [13] addresses Heat shock protein HSP 90-beta (Homo sapiens) (UniProt P08238). The experiment in a line: Inhibition of HSP90 in human MCF7 cells assessed as Raf degradation at 0.5 to 100 uM after 24 hrs by Western blot analysis. Type of test: cell-based.
The target is the same in test [14]. In words: Inhibition of HSP90 in human MCF7 cells assessed as Her2 degradation at 0.5 to 100 uM after 24 hrs by Western blot analysis. Type of test: cell-based.

The IC50 is the midpoint of a concentration-inhibition curve. Higher therefore signals lower potency.

Calls of active or inactive are those of the source. The rule behind the calls is not given here. Bounds are passed on as bounds.

Heat shock protein HSP 90-beta (Homo sapiens), sequence (P08238 whole entry): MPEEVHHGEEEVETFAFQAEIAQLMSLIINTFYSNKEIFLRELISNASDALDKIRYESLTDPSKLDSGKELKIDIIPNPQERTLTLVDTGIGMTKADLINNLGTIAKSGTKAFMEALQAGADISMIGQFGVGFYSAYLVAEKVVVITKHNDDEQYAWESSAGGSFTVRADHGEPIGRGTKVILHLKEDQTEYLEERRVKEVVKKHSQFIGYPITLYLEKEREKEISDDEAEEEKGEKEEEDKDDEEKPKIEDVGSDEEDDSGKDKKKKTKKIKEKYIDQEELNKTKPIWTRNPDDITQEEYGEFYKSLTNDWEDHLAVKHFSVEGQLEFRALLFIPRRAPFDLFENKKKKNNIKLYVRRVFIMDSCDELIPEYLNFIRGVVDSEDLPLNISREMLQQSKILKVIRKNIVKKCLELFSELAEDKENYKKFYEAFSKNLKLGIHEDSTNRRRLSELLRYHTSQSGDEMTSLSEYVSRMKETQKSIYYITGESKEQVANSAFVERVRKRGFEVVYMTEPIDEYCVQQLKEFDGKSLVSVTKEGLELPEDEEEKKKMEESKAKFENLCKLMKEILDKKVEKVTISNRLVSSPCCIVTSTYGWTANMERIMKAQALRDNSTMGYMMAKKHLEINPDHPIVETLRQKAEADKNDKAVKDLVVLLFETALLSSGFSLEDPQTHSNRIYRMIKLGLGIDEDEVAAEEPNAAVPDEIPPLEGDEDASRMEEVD

For `CC(C)=CCc1cc(C(=O)Nc2cc3ccc(OCCN(C)C)c(C)c3oc2=O)ccc1O`, the figures for the IC50 in the test on MCF7 [1] and in the test with SK-BR-3 [2] were 13.5 µM and 9.45 µM, respectively.
For `CC(=O)Oc1ccc(C(=O)Nc2cc3ccc(OCCN(C)C)c(C)c3oc2=O)cc1CC=C(C)C` the same measures were 4.76 µM and 1.32 µM.
For `CC(=O)Oc1ccc(C(=O)Nc2cc3ccc(OC4CCNCC4)c(C)c3oc2=O)cc1CC=C(C)C`, the figures for the IC50 in the test on MCF7 [1] and in the test on SK-BR-3 [2] were 1.53 µM and 0.56 µM, respectively.
For `CC(C)=CCc1cc(C(=O)Nc2cc3ccc(OCCCN(C)C)c(C)c3oc2=O)ccc1O`, the IC50 is 1.35 µM in the test with MCF7 [1] and 0.44 µM in the test with SK-BR-3 [2].
As to `CNCCOc1ccc2cc(NC(=O)c3ccc(O)c(CC=C(C)C)c3)c(=O)oc2c1C`, the IC50 with MCF7 [1] stood at 1.33 µM; with SK-BR-3 [2], 0.75 µM.
For `CC(C)=CCc1cc(C(=O)Nc2cc3ccc(O[C@H]4C[C@H](O)CO4)c(C)c3oc2=O)ccc1O`, in the test with SK-BR-3 [3], the “Ratio IC50” value is given as 1500. The values for the IC50 in the test on MCF7 [1] and in the test with SK-BR-3 [2] were 22.5 µM and 21.5 µM, respectively.
For `CC(C)=CCc1cc(C(=O)Nc2cc3ccc(O[C@H]4OCC[C@@H](O)[C@H]4O)c(C)c3oc2=O)ccc1O` the same measures were 1500, 10 µM and 10.7 µM.
Take `CC(C)=CCc1cc(C(=O)Nc2cc3ccc(O[C@@H]4C[C@H](O)CCO4)c(C)c3oc2=O)ccc1O`: in the test on SK-BR-3 [3], the “Ratio IC50” value came out at 1500. The 50% inhibitory concentration (IC50) amounted to 1.34 µM in the test with MCF7 [1] and 5.07 µM in the test on SK-BR-3 [2].
Consider `CC(C)=CCc1cc(C(=O)Nc2cc3ccc(O[C@@H]4OCCC[C@H]4O)c(C)c3oc2=O)ccc1O`, for which the “Ratio IC50” value in the test with SK-BR-3 [3] was determined as 1500. Besides, the figures for the IC50 in the test on MCF7 [1] and in the test with SK-BR-3 [2] were 10.2 µM and 30 µM, respectively.
`CC(C)=CCc1cc(C(=O)Nc2cc3ccc(OC4CCCNC4)c(C)c3oc2=O)ccc1O` (stereo unspecified): the IC50 was 1.68 µM in the test with MCF7 [1] and 0.79 µM with SK-BR-3 [2].
For `CC(=O)Oc1ccc(C(=O)Nc2cc3ccc(OCCCN(C)C)c(C)c3oc2=O)cc1CC=C(C)C`, in that order: 1.18 µM and 0.46 µM.
Turning to `CC(C)=CCc1cc(C(=O)Nc2cc3ccc(O[C@@H]4OC[C@@H](O)[C@H]4O)c(C)c3oc2=O)ccc1O`, in the test on SK-BR-3 [3], the “Ratio IC50” value was 1500. Further, the IC50 was 14.3 µM in the test with MCF7 [1] and 14.4 µM with SK-BR-3 [2].
In the case of `CNCCOc1ccc2cc(NC(=O)c3ccc(OC(C)=O)c(CC=C(C)C)c3)c(=O)oc2c1C`, the results for the concentration for half-maximal inhibition (IC50) in the test with MCF7 [1] and with SK-BR-3 [2] were 2.08 µM and 0.91 µM, respectively.
For `CC(=O)Oc1ccc(C(=O)Nc2cc3ccc(OC4CCCN(C)C4)c(C)c3oc2=O)cc1CC=C(C)C` (stereo unspecified) the same measures were 1.57 µM and 1.42 µM.
As for `CC(C)=CCc1cc(C(=O)Nc2cc3ccc(O[C@@H]4OCC[C@@H](O)[C@H]4O)c(C)c3oc2=O)ccc1O`, the “Ratio IC50” value in the test with SK-BR-3 [3] was 1500. Further, the IC50 in the test on MCF7 [1] was determined as 13.3 µM; with SK-BR-3 [2], 6.96 µM.
For `CC(C)=CCc1cc(C(=O)Nc2cc3ccc(O[C@H]4OCCC[C@H]4O)c(C)c3oc2=O)ccc1O`, in the test with SK-BR-3 [3], the “Ratio IC50” value is listed as 1500. Moreover, the IC50 worked out at 6.45 µM with MCF7 [1] and 7.87 µM in the test with SK-BR-3 [2].
`CC(C)=CCc1cc(C(=O)Nc2cc3ccc(OC4CCNCC4)c(C)c3oc2=O)ccc1O`: the inhibition entry in test [4], in test [7] and in test [8] was “Active” throughout. The inhibition entry in test [5], in test [6] and in test [9] was “Dose-dependent effect” in each case. In addition, the IC50 with MCF7 [1] stood at 0.85 µM; in the test with SK-BR-3 [2] it was 0.47 µM.
As for `CC(C)=CCc1cc(C(=O)Nc2cc3ccc(O[C@@H]4C[C@H](O)CO4)c(C)c3oc2=O)ccc1O`, in the test on SK-BR-3 [3], the “Ratio IC50” value was found to be 1500. Besides, the IC50 with MCF7 [1] was above 100 µM; in the test on SK-BR-3 [2] it was 22.2 µM.
For the compound `CC(=O)Oc1ccc(C(=O)Nc2cc3ccc(OC4CCCNC4)c(C)c3oc2=O)cc1CC=C(C)C` (stereo unspecified), the figures for the IC50 in the test with MCF7 [1] and in the test on SK-BR-3 [2] were 1.54 µM and 1.23 µM, respectively.
For the compound `CO[C@@H]1[C@@H](O)[C@@H](O)[C@H](Oc2ccc3cc(NC(=O)c4ccc(O)c(CC=C(C)C)c4)c(=O)oc3c2C)OC1(C)C`, in the test on SK-BR-3 [3], the “Ratio IC50” value stood at 1500. Also, the IC50 worked out at 11.3 µM with MCF7 [1] and 10.9 µM with SK-BR-3 [2].
`CC(C)=CCc1cc(C(=O)Nc2cc3ccc(OC4CCCN(C)C4)c(C)c3oc2=O)ccc1O` (stereo unspecified): the figures for the 50% inhibitory concentration (IC50) in the test with MCF7 [1] and in the test on SK-BR-3 [2] were 10.1 µM and 4.69 µM, respectively.
For `CC(=O)Oc1ccc(C(=O)Nc2cc3ccc(OC4CCN(C)CC4)c(C)c3oc2=O)cc1CC=C(C)C`, the IC50 was 1.18 µM with MCF7 [1] and 0.58 µM in the test with SK-BR-3 [2].
On to `CC(C)=CCc1cc(C(=O)Nc2cc3ccc(OC4CCN(C)CC4)c(C)c3oc2=O)ccc1O`, for which the IC50 with MCF7 [1] amounted to 1.09 µM.
Take `CC(C)=CCc1cc(C(=O)Nc2cc3ccc(O[C@H]4C[C@H](O)CCO4)c(C)c3oc2=O)ccc1O`: the inhibition result in [5], in [6] and in test [9] was “Dose-dependent effect” throughout. Besides, the entries for the “Ratio IC50” value in the test with MCF7 [10], in the test with SK-BR-3 [12] and in the test on SK-BR-3 [3] were 200, 3 and 200, respectively. Further, the inhibition entry in test [11], in test [13] and in test [14] was “Active” in each case. For the same compound, the concentration for half-maximal inhibition (IC50) with MCF7 [1] is 1.56 µM; in the test on SK-BR-3 [2] it was 3.11 µM.

The values are drawn from ChEMBL document CHEMBL1773008 (ACS Med Chem Lett, 2010).
